From patent publication US20120196766A1, “Therapeutic Use of Farnesyltransferase Inhibitors and Methods of Monitoring the Efficacy Thereof” (priority 2004, published 2012)

Assays:
[1] = cited from earlier work
[2] = test system: THP-1 cells; test: LPS-induced cytokine, chemokine and MMP-9 secretion by THP-1 cells (ELISA); assay type: cell-based, Human
Protocol: THP-1 cells were cultured in RPMI1640 medium, supplemented with 10% FBS/100 units/ml Penicillin/10 μg/ml Streptomycin at 37° C., under 5% CO2. […] For the untreated control group (no LPS, no compound) and LPS alone group, equivalent volumes of DMSO were added to the medium. Cells were cultured at 37° C. and pellets were collected at 0 hr, 1 hr, 3 hr, 6 hr, 12 hr & 24 hr. Cell pellets were stored at −80° C. if RNA isolation was not conducted immediately. For experiments to study cytokine secretion in culture supernatants, THP-1 cells were washed twice with PBS, resuspended at 3.4×10^5/ml and cultured in 96-well plates at 250 μL, per well at 37° C. […] Supernatants were collected at different time points as indicated in the figures and were kept at ≦−20° C. until analysis of cytokine production.
Human IL-6, IL18, IL1β, MCP-1, MMP-9, and mouse IL-6, IL18, TNFα, MCP-1 and IL-1β were measured with ELISA kits (R&D Systems) according to the manufacturer's instructions.
Samples were tested for cytokines using the Bio-plex cytokine assay kit (Bio-Rad Laboratories, Inc.) according to the manufacturer's instructions. Briefly, 50 μL anti-cytokine antibody conjugated beads were added to wells of a filter plate pre-equilibrated with assay buffer. The beads were washed, then 50 μL of undiluted cell culture supernatant or 4-fold diluted plasma samples were added and incubated for 2 hours. Biotinylated anti-cytokine antibody (25 μL) was added to each well and the plate was incubated with shaking for 1.5 hours. Streptavidin-PE (50 μL) was added to each well and the plate was incubated with shaking for 45 min. between incubations, wells were washed 3 times with 100 μL wash buffer and unbound analytes were filtered using a vacuum manifold. Following the last wash step, 125 μL of assay buffer was added to each well and the plate was placed on a shaker for 10 min. The plate was read on a Luminex^100 instrument (Luminex Corporation, Austin, Tex.) according to the manufacturer's instructions. The concentration of cytokine was determined from a standard curve assayed at the same time.

[3] = test system: THP-1 cells; test: Inhibition of LPS-induced IL-6 release in THP-1 cells, concentration series; assay type: cell-based; conditions: Homo sapiens, 100 ng/ml LPS, 0.5% FBS, supernatants at 48 hr, read-out: IC50 for inhibition of LPS-induced IL-6 secretion
Protocol: (§1) THP-1 cells at 3.4×10^5/ml were cultured in 96-well plates in 0.5% FBS/RPMI 1640, in the absence or presence of 100 ng/ml LPS, plus or minus tipifarnib (starting from 5 μM, followed by 3-fold series dilution). The concentrations of tipifarnib were: 5 μM, 1.67 μM, 0.56 μM, 0.19 μM and 0.06 μM. Supernatants were collected at 48 hr. IL6 was quantified using ELISA kit from R&D Systems.
as §1, with “Medium components were certified to contain less than 0.3 endotoxin units/ml. THP-1” for “THP-1”, “LPS” for “LPS,”, “tested” for “quantified”

[4] = test system: cachexia; conditions: US 2004/0157773, WO 02/085364; cited from earlier work
[5] = cited from earlier work; remark: listed apart in the source

Cn1cncc1C(N)(c1ccc(Cl)cc1)c1ccc2c(c1)c(-c1cccc(Cl)c1)cc(=O)n2C (single isomer, unassigned; (+)) [tipifarnib, (+)-6-[amino(4-chlorophenyl)(1-methyl-1H-imidazol-5-yl)methyl]-4-(3-chlorophenyl)-1-methyl-2(1H)-quinolinone]
protein binding [1]: highly protein-bound
LPS-induced TNF-α production, second phase of induction ([2]; after 22 h up to 48 hours): dose-dependent inhibition
LPS-induced TNF-α production, initial peak ([2]; between 5 and 10 hours): unaffected
LPS-induced IL-8 production ([2]; simvastatin 5 and 10 μM or tipifarnib 2 and 5 μM, 22, 30 and 48 hours): no significant inhibition of IL-8 production, except for 5 μM at 22 hours
LPS-induced MMP-9 secretion ([2]; simvastatin 5 and 10 μM or tipifarnib 2 and 5 μM, 30 and 48 hours): dose-dependently inhibited
extent of inhibition of MCP-1 secretion compared with 10 μM simvastatin ([2]; tipifarnib 2 μM): much greater
LPS-induced TNF-α production, second phase of induction ([2]; tipifarnib 5 μM): totally inhibited
IL-1β secretion ([2]; tipifarnib 2 and 5 μM): dose-dependent inhibition
inhibition of IL-6 release ([2]; tipifarnib 2 and 5 μM): inhibition was observed at all time points
MCP-1 secretion ([2]; tipifarnib 2 and 5 μM, up to 48 hours): dose-dependent inhibition
IC50 [3]: ~1000 nM
cachexia [4]: inhibition
plasma levels ([5]; at 300 mg twice a day (Karp, Lancet et al. 2001)): approximately 2 μM
maximum tolerated dose ([5]; in a number of studies (Head and Johnston 2003)): 300 mg twice a day
